The target in this experiment is glucocorticoid receptor (GR) recombinant ligand binding domain (LBD) (Homo sapiens (Human), UniProt P04150). Put plainly: GR binding fluorescence polarisation (FP) assay. As to conditions: displacement of fluorescently tagged ligand. As to the method: Binding of test compounds to the glucocorticoid receptor (GR) is determined using a fluorescence polarisation (FP) assay utilising a recombinant ligand binding domain (LBD) of GR. The test compounds are assessed by their ability to displace a fluorescently tagged ligand and detection of the resulting decrease in fluorescence polarisation.

Experimental findings from patent publication US11787780B2 (CORCEPT THERAPEUTICS INCORPORATED, priority 2020, dated 2023) are described below.

Sequence of glucocorticoid receptor (GR) recombinant ligand binding domain (LBD) (P04150 524-758): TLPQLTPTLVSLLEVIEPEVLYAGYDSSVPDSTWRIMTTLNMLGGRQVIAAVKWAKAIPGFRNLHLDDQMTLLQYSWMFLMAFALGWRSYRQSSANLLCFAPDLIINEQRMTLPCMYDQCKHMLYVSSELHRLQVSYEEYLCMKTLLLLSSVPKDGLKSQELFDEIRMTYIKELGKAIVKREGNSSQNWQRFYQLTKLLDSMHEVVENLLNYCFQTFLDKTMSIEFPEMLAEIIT

Broadly, the IC50 is the midpoint of a concentration-inhibition curve. Take `CC(=O)N1CCN(c2ccc3c(cnn3-c3ccc(F)cc3)c2)[C@H](C)C1` [Example 97]: the IC50 was found to be 1810 nM.

For `CC(=O)N1CCN(c2ccc3c(cnn3-c3ccc(F)cc3)c2)C[C@H]1Cc1ccccc1` [Example 98], the IC50 stood at 749 nM.

For the compound `CC(=O)N1CCN(c2ccc3c(cnn3-c3ccc(F)cc3)c2)C[C@H]1CC(C)C` [Example 99], the IC50 was found to be 898 nM.

With `Cc1cc2c(cnn2-c2ccc(F)cc2)cc1N1CCN(C(=O)Nc2ccccc2)C2(CC2)C1` [Example 102], the IC50 was 267 nM.

For `CCCS(=O)(=O)N1CCN(c2ccc3c(cnn3-c3ccc(F)cc3)c2)C[C@H]1C` [Example 104, (R)-1-(4-fluorophenyl)-5-(3-methyl-4-(propylsulfonyl)piperazin-1-yl)-1H-indazole], the IC50 was 270 nM.

Turning to `CS(=O)(=O)N[C@H]1CCN(c2ccc3c(cnn3-c3ccc(F)cc3)c2)C1` [Example 105], the IC50 stood at 320 nM.

In the case of `Cc1cc2c(cnn2-c2ccc(F)cc2)cc1N1CCC(NS(C)(=O)=O)CC1` [Example 106], the IC50 stood at 9 nM.

On to `CCCn1cc(S(=O)(=O)NC2CCN(c3cc4cnn(-c5ccc(F)cc5)c4cc3C)CC2)cn1` [Example 107], for which the IC50 amounted to 3 nM.

On to `Cc1cc2c(cnn2-c2ccc(F)cc2)cc1N1CC[C@H](NS(C)(=O)=O)C1` [Example 108], for which the IC50 came to 7 nM.

`Cc1cc2c(cnn2-c2ccc(F)cc2)cc1N1CC[C@@H](NS(C)(=O)=O)C1` [Example 109]: the IC50 is 48 nM.

Turning to `Cc1cc2c(cnn2-c2ccc(F)cc2)cc1N1CC[C@@H](NS(=O)(=O)c2cnn(C)c2)C1` [Example 110], the IC50 was found to be 46 nM.

For `Cc1cc2c(cnn2-c2ccc(F)cc2)cc1N1CC[C@H](NS(=O)(=O)c2cnn(C)c2)C1` [Example 111], the IC50 is 3 nM.

With `Cc1cc2c(cnn2-c2ccc(F)cc2)cc1N1CC[C@H](N(C)S(C)(=O)=O)C1` [Example 112], the half-maximal inhibitory concentration (IC50) worked out at 249 nM.

With `Cc1cc2c(cnn2-c2ccc(F)cc2)cc1N1CC[C@@H](N(C)S(C)(=O)=O)C1` [Example 113], the IC50 was found to be 52 nM.

For the compound `Cc1cc2c(cnn2-c2ccc(F)cc2)cc1N1CC[C@H](N(C)S(=O)(=O)c2cnn(C)c2)C1` [Example 114], the IC50 was 304 nM.

On to `Cc1cc2c(cnn2-c2ccc(F)cc2)cc1N1CC[C@@H](N(C)S(=O)(=O)c2cnn(C)c2)C1` [Example 115], for which the IC50 worked out at 21 nM.

In the case of `Cc1cc2c(cnn2-c2ccc(F)cc2)cc1N1CCC(N(C)S(C)(=O)=O)CC1` [Example 116], the half-maximal inhibitory concentration (IC50) worked out at 72 nM.

Take `CCCn1cc(S(=O)(=O)N(C)C2CCN(c3cc4cnn(-c5ccc(F)cc5)c4cc3C)CC2)cn1` [Example 117]: the IC50 turned out to be 57 nM.

With `CCCn1cc(S(=O)(=O)N(C)[C@H]2CCCN(c3cc4cnn(-c5ccc(F)cc5)c4cc3C)C2)cn1` [Example 125], the IC50 came to 208 nM.

For `Cc1cc2c(cnn2-c2ccc(F)cc2)cc1N1CCCC(N(C)S(C)(=O)=O)C1` (stereo not drawn) [Example 126], the IC50 was determined as 190 nM.

Turning to `Cc1cc2c(cnn2-c2ccc(F)cc2)cc1N1CCCC(N(C)S(=O)(=O)c2cnn(C)c2)C1` (stereo not drawn) [Example 127], the IC50 turned out to be 174 nM.

As to `CCCn1cc(S(=O)(=O)N(C)C2CCCN(c3cc4cnn(-c5ccc(F)cc5)c4cc3C)C2)cn1` (stereo not drawn) [Example 128], the IC50 is 590 nM.

In the case of `CS(=O)(=O)N1CCC(c2ccc3c(cnn3-c3ccc(F)cc3)c2)CC1` [Example 134], the IC50 was determined as 3380 nM.

In the case of `CCCn1cc(S(=O)(=O)N2CCC(c3ccc4c(cnn4-c4ccc(F)cc4)c3)CC2)cn1` [Example 135], the IC50 was determined as 473 nM.

As to `Cc1cc2c(cnn2-c2ccc(F)cc2)cc1C1CCN(S(C)(=O)=O)CC1` [Example 136], the IC50 was 102 nM.

As to `CCCn1cc(S(=O)(=O)N2CC=C(c3ccc4c(cnn4-c4ccc(F)cc4)c3)CC2)cn1` [Example 137], the IC50 is 308 nM.

For the compound `Cc1cc2c(cnn2-c2ccc(F)cc2)cc1C1=CCN(S(C)(=O)=O)CC1` [Example 138], the IC50 amounted to 101 nM.
